Where a chain is given by its changes, count along the chain named. Where a SMILES comes first, the peptide text is derived from it. Bridges are numbered along the chain shown (N, C = ends).
Columns and labels:
Assay type in all cases: cell-based
hCTR L297A = molecular target: T1, hCTR L297A (Homo sapiens, UniProt P30988, L297A); assay: ERK1/2 phosphorylation; settings: CV1-FlpIn cells, mean ± S.E.M.; for Emax: pERK maximal response; for EC50: pERK, three-parameter logistic fit
T1 construct: c-Myc (N); expressed in transfected cells
T1 sequence (P30988 25-474 L297A): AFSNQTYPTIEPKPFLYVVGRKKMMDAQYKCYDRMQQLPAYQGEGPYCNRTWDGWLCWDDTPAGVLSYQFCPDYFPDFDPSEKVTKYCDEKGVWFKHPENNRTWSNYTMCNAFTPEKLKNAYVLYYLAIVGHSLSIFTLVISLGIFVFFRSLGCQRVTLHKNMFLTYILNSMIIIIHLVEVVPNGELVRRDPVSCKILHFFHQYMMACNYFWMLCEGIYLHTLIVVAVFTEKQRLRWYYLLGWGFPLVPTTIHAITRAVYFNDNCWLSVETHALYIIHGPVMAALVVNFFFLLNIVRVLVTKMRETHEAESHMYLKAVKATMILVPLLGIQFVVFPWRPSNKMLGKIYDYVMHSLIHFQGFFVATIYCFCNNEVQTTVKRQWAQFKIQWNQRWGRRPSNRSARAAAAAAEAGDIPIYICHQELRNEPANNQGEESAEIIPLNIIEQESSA
In short: (§1)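 Overnight-plated cells at 2.5 × 10^4/well are stimulated, and ERK1/2 phosphorylation is referenced to the 10% FBS response at 6 min before logistic curve fitting.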

hCTR V357A = molecular target: T2, hCTR V357A (Homo sapiens, UniProt P30988, V357A); assay: ERK1/2 phosphorylation; settings: CV1-FlpIn cells, mean ± S.E.M.; for Emax: pERK maximal response
T2 construct: c-Myc (N); expressed in transfected cells
T2 sequence (P30988 25-474 V357A): T1 sequence (P30988 25-474 L297A) with A273L, V333A
In short: as §1

hCTR N365A = molecular target: T3, hCTR N365A (Homo sapiens, UniProt P30988, N365A); assay: IP1 accumulation; settings: mean ± S.E.M.; for Emax: IP1 maximal response, SEM
T3 construct: c-Myc (N); expressed in transfected cells
T3 sequence (P30988 25-474 N365A): T1 sequence (P30988 25-474 L297A) with A273L, N341A
Procedure: (§2) Cells (2.5 × 10^4 cells/well) were plated into 96 well trays and cultured overnight. Cells were stimulated with increasing concentration of ligands for 60 min in the presence of LiCl. Samples were lysed and endogenous IP1 was measured using an IP-One HTRF® assay kit (CisBio) as specified by the manufacturer. Data were normalized to the maximal response elicited by 100 μM of ATP.
(§3) Data were corrected for radioligand occupancy using the Cheng-Prusoff equation in Prism; as such data are reported as pKi. Emax and EC50 were estimated from concentration-response curves using with a 3-parameter logistic equation in Prism (v7). These values are a composite of functional affinity, efficacy and stimulus response coupling. […] Significance was accepted at P < 0.05.

hCTR T295A = molecular target: T4, hCTR T295A (Homo sapiens, UniProt P30988, T295A); assay: IP1 accumulation; settings: mean ± S.E.M.; for Emax: IP1 maximal response, SEM
T4 construct: c-Myc (N); expressed in transfected cells
T4 sequence (P30988 25-474 T295A): T1 sequence (P30988 25-474 L297A) with T271A, A273L
Procedure: as §2, §3

hCTR N288A = molecular target: T5, hCTR N288A (Homo sapiens, UniProt P30988, N288A); assay: IP1 accumulation; settings: mean ± S.E.M.; for Emax: IP1 maximal response, SEM
T5 construct: expressed in transfected cells
T5 sequence (P30988 25-474 N288A): T1 sequence (P30988 25-474 L297A) with N264A, A273L
Procedure: as §2, §3

[1] = IP1, CV1-FlpIn cells, 60 min, LiCl

EC50 (hCTR L297A) | EC50 (hCTR V357A; pERK, three-parameter logistic fit) | EC50 (hCTR N365A; [1]) | EC50 (hCTR T295A; [1]) | EC50 (hCTR N288A; [1]) | Structure (SMILES) | Emax (hCTR L297A) | Emax (hCTR V357A) | Emax (hCTR N365A) | Emax (hCTR T295A) | Emax (hCTR N288A)
– | – | – | – | – | CC[C@H](C)[C@H](NC(=O)[C@H](C)NC(=O)[C@@H](NC(=O)[C@H](CCC(N)=O)NC(=O)[C@@H]1CCCN1C(=O)[C@H](Cc1ccccc1)NC(=O)[C@@H](NC(=O)[C@H](Cc1c[nH]cn1)NC(=O)[C@H](Cc1ccccc1)NC(=O)[C@H](CCCCN)NC(=O)[C@H](CC(N)=O)NC(=O)[C@H](Cc1ccccc1)NC(=O)[C@H](CC(=O)O)NC(=O)[C@H](CCC(N)=O)NC(=O)[C@@H](NC(=O)[C@H](Cc1ccc(O)cc1)NC(=O)[C@@H](NC(=O)CNC(=O)[C@H](CC(C)C)NC(=O)[C@H](CCSC)NC(=O)[C@@H]1CSSC[C@H](N)C(=O)NCC(=O)N[C@@H](CC(N)=O)C(=O)N[C@@H](CC(C)C)C(=O)N[C@@H](CO)C(=O)N[C@@H]([C@@H](C)O)C(=O)N1)[C@@H](C)O)[C@@H](C)O)[C@@H](C)O)[C@@H](C)O)C(=O)NCC(=O)N[C@H](C(=O)NCC(=O)N[C@@H](C)C(=O)N1CCC[C@H]1C(N)=O)C(C)C [hCT] | 63 ± 5% | 53 ± 5% | 81 ± 6% | 43 ± 4% | 91 ± 8%
97.7 nM | – | – | – | – | CC(C)C[C@H](NC(=O)CNC(=O)[C@H](C)NC(=O)[C@H](CC(C)C)NC(=O)[C@H](CCCNC(=N)N)NC(=O)[C@H](Cc1cnc[nH]1)NC(=O)[C@@H](NC(=O)[C@@H](NC(=O)[C@@H]1CSSC[C@H](NC(=O)[C@H](C)N)C(=O)N[C@@H](CC(=O)O)C(=O)N[C@@H]([C@@H](C)O)C(=O)N[C@@H](C)C(=O)N[C@@H]([C@@H](C)O)C(=O)N1)C(C)C)[C@@H](C)O)C(=O)N[C@@H](CC(C)C)C(=O)N[C@@H](CO)C(=O)N[C@@H](CCCNC(=N)N)C(=O)N[C@@H](CO)C(=O)NCC(=O)NCC(=O)N[C@H](C(=O)N[C@H](C(=O)N[C@@H](CCCCN)C(=O)N[C@@H](CC(N)=O)C(=O)N[C@@H](CC(N)=O)C(=O)N[C@@H](Cc1ccccc1)C(=O)N[C@H](C(=O)N1CCC[C@H]1C(=O)N[C@H](C(=O)N[C@@H](CC(N)=O)C(=O)N[C@H](C(=O)NCC(=O)N[C@@H](CO)C(=O)N[C@@H](CCCCN)C(=O)N[C@@H](C)C(=O)N[C@@H](Cc1ccccc1)C(N)=O)C(C)C)[C@@H](C)O)C(C)C)C(C)C)C(C)C [hαCGRP] | 73 ± 12% | – | – | – | –
0.977 nM | 3.72 nM | 2.24 nM | 4.57 nM | 1.91 nM | CSCC[C@H](NC(=O)CNC(=O)[C@H](CO)NC(=O)[C@H](Cc1ccccc1)NC(=O)[C@H](CCCNC(=N)N)NC(=O)[C@H](Cc1c[nH]cn1)NC(=O)[C@H](Cc1ccccc1)NC(=O)[C@H](CC(N)=O)NC(=O)[C@H](CC(N)=O)NC(=O)[C@H](CC(C)C)NC(=O)[C@H](CC(N)=O)NC(=O)[C@H](CCCNC(=N)N)NC(=O)[C@H](Cc1c[nH]c2ccccc12)NC(=O)[C@H](Cc1ccc(O)cc1)NC(=O)[C@H](C)NC(=O)[C@H](CO)NC(=O)[C@H](CC(C)C)NC(=O)[C@@H](NC(=O)[C@@H]1CSSC[C@H](N)C(=O)N[C@@H](CO)C(=O)N[C@@H](CC(N)=O)C(=O)N[C@@H](CC(C)C)C(=O)N[C@@H](CO)C(=O)N[C@@H]([C@@H](C)O)C(=O)N1)C(C)C)C(=O)NCC(=O)N[C@@H](Cc1ccccc1)C(=O)NCC(=O)N1CCC[C@H]1C(=O)N[C@@H](CCC(=O)O)C(=O)N[C@H](C(=O)N1CCC[C@H]1C(N)=O)[C@@H](C)O [pCT] (H-CSNLSTCVLSAYWRNLNNFHRFSGMGFGPETP-NH2; disulfide 1-7) | 59 ± 4% | 83 ± 10% | 68 ± 6% | 56 ± 7% | 93 ± 7%
– | – | – | – | – | CC(C)C[C@H](NC(=O)[C@H](CC(N)=O)NC(=O)[C@H](CC(N)=O)NC(=O)[C@H](CO)NC(=O)[C@H](CO)NC(=O)[C@H](CCCNC(=N)N)NC(=O)[C@@H](NC(=O)[C@H](CC(C)C)NC(=O)[C@H](Cc1ccccc1)NC(=O)[C@H](CC(N)=O)NC(=O)[C@H](C)NC(=O)[C@H](CC(C)C)NC(=O)[C@H](CCCNC(=N)N)NC(=O)[C@H](CCC(N)=O)NC(=O)[C@@H](NC(=O)[C@H](C)NC(=O)[C@@H]1CSSC[C@H](NC(=O)[C@@H](N)CCCCN)C(=O)N[C@@H](CC(N)=O)C(=O)N[C@@H]([C@@H](C)O)C(=O)N[C@@H](C)C(=O)N[C@@H]([C@@H](C)O)C(=O)N1)[C@@H](C)O)C(C)C)C(=O)NCC(=O)N1CCC[C@H]1C(=O)N[C@H](C(=O)N[C@@H](CC(C)C)C(=O)N1CCC[C@H]1C(=O)N1CCC[C@H]1C(=O)N[C@H](C(=O)N[C@@H](CC(N)=O)C(=O)N[C@H](C(=O)NCC(=O)N[C@@H](CO)C(=O)N[C@@H](CC(N)=O)C(=O)N[C@H](C(=O)N[C@@H](Cc1ccc(O)cc1)C(N)=O)[C@@H](C)O)C(C)C)[C@@H](C)O)C(C)C [rAmy] | 49 ± 6% | 40 ± 8% | – | – | –
– | – | – | – | – | CC(C)C[C@H](NC(=O)[C@H](CCCCN)NC(=O)CNC(=O)[C@H](CC(C)C)NC(=O)[C@@H](NC(=O)[C@@H]1CSSC[C@H](N)C(=O)N[C@@H](CO)C(=O)N[C@@H](CC(N)=O)C(=O)N[C@@H](CC(C)C)C(=O)N[C@@H](CO)C(=O)N[C@@H]([C@@H](C)O)C(=O)N1)C(C)C)C(=O)N[C@@H](CO)C(=O)N[C@@H](CCC(N)=O)C(=O)N[C@@H](CCC(=O)O)C(=O)N[C@@H](CC(C)C)C(=O)N[C@@H](Cc1c[nH]cn1)C(=O)N[C@@H](CCCCN)C(=O)N[C@@H](CC(C)C)C(=O)N[C@@H](CCC(N)=O)C(=O)N[C@H](C(=O)N[C@@H](Cc1ccc(O)cc1)C(=O)N1CCC[C@H]1C(=O)N[C@@H](CCCNC(=N)N)C(=O)N[C@H](C(=O)N[C@@H](CC(N)=O)C(=O)N[C@H](C(=O)NCC(=O)N[C@@H](CO)C(=O)NCC(=O)N[C@H](C(=O)N1CCC[C@H]1C(N)=O)[C@@H](C)O)[C@@H](C)O)[C@@H](C)O)[C@@H](C)O [sCT] | 68 ± 4% | 82 ± 7% | 66 ± 4% | 53 ± 7% | 119 ± 6%
